Results as given in US20110207796A1, “ALPHA-SYNUCLEIN KINASE” (Elan Pharma International Limited, priority 2008, published 2011).
pEC50, pIC50: −log10 of the molar value. Where two headings read alike, the source gives them in different places.

Assays:
[1] = system: brain p-synuclein (p-Ser129); assay: in vivo inhibition of phosphorylation of synuclein in wild-type FVB mice, brain western blot; set-up: species or system mouse; settings: IV tail vein 50 mg/kg
Experimental: The examples above describe the identification and in vitro validation of polo-like kinase 2 (PLK2) as an α-synuclein Ser 129-specific kinase. This example describes the ability of a kinase inhibitor (BI 2561) to decrease phosphorylation of α-synuclein in vivo. Wild-type FVB mice were treated by IV tail vein with 50 mg/kg of the PLK-specific inhibitor. Total α-synuclein and p-synuclein levels in brain (p-Ser129) were analyzed by western blot.

[2] = system: endogenous kinase (synuclein phosphorylation); assay: HEK-293 cells overexpressing synuclein with empty vector, inhibition of synuclein phosphorylation; assay type: cell-based, human; settings: for rank order of potency, Endogenous Kinase (293): Table 19; for pEC50: Homo sapiens
Experimental: (§1) All vectors had the sequence coding for the protein of interest. Transfection was accomplished using Lipofectamine 2000 (Invitrogen, Carlsbad, Calif.) with 0.08 μg vector. Cells were washed and harvested 48 hours post-transfection. A Micro BCA (Pierce) total protein assay and total synuclein and phospho-synuclein ELISAs were performed on each plate of treated cells.

[3] = system: synuclein phosphorylation (serine-129); assay: inhibition of synuclein phosphorylation across the cellular paradigms (primary neuronal cultures and 293 cells); assay type: cell-based, mouse, rat and human; settings: Homo sapiens
[4] = system: synuclein phosphorylation by endogenous kinase; assay: kinase inhibitor treatment of rat ventral mesencephalon (RVM) cultures transduced with E46K-synuclein; assay type: cell-based
Experimental: (§2) Rat Ventral Mesencephalon (RVM) cultures were prepared from E15 Wistar rats. The RVM cultures were cultured for 2 days and transduced with 0.75 MOI E46K-Synuclein lentivirus alone, or 0.75 MOI E46K-Synuclein lentivirus plus 0.75 MOI ca-PLK2 lentivirus. […] Transduced cultures were maintained in neuronal media with B27/1% FBS and 37° C./5% CO2 until treated with inhibitors. On DIV 17 (which corresponds to 15 days after viral transduction of the cultures) cells were treated with inhibitors for two hours. Cells were then harvested as detailed above in neuronal media with B27/1% FBS. A Micro BCA (Pierce) total protein assay, and total synuclein and phospho-synuclein ELISAs were performed on each plate of treated cells using standard methods.

PLK2 [5] = molecular target: T1, PLK2 (Homo sapiens, UniProt Q9NYY3); assay: in vitro biochemical assay of PLK2-driven synuclein phosphorylation
T1 sequence (Q9NYY3 whole entry): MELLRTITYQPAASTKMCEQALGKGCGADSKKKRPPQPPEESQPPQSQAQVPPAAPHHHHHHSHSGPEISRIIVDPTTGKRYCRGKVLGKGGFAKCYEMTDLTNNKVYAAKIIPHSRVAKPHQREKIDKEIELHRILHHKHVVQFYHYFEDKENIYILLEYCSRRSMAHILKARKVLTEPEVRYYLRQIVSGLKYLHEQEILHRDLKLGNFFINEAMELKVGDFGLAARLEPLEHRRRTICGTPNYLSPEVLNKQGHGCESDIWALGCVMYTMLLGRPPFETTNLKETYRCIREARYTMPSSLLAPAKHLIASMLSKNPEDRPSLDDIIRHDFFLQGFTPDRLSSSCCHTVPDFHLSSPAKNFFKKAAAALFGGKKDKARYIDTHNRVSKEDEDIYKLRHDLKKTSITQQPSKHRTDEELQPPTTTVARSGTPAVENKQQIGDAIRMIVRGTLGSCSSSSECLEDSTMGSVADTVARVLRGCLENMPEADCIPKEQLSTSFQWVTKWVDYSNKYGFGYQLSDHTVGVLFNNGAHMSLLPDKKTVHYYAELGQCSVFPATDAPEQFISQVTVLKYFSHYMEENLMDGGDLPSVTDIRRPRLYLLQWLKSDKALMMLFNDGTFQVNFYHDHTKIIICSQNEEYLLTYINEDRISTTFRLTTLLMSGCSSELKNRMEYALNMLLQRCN
Experimental: The reaction was incubated at 37° C. The activity was analyzed by autoradiography.
In vitro biochemical assays using each of the four PLK family members as the kinase to phosphorylate synuclein were conducted.

[6] = system: synuclein phosphorylation by constitutively active PLK2 (caPLK2); assay: kinase inhibitor treatment of RVM cultures transduced with E46K-synuclein plus ca-PLK2; assay type: cell-based; settings: rat ventral mesencephalon cultures
Experimental: as §2

PLK2 [7] = molecular target: T1, PLK2; assay: HEK-293 cells overexpressing synuclein and PLK2, inhibition of synuclein phosphorylation; assay type: cell-based; set-up: expressed in transfected cells; host or cells: HEK-293; settings: for Rank Order of Potency Based on Percent Inhibition of Synuclein Phosphorylation, Synuclein + PLK2: HEK-293, Table 22
Experimental: as §1

[8] = system: synuclein phosphorylation by endogenous kinase; assay: kinase inhibitor treatment of mouse cortical cultures (MCC), total and phospho-synuclein ELISA; assay type: cell-based
Experimental: Mouse cortical cultures from fetal (i) Swiss-Webster, (ii) C56BL/6 WT and (iii) C56BL/6 E46K-Synuclein Trangenic mice were prepared and maintained in B27/DMEM/1% Penicillin-Streptomycin at 37° C./10% CO2 for three to fourteen days and then treated with kinase inhibitors.
Cultures were exposed to inhibitors for two hours in B27/DMEM/1% Penicillin-Streptomycin. Cells were immediately washed in 100 μL of PBS plus Mg^2+ and Ca^2+, and harvested in ice-cold CEB minus EGTA plus protease inhibitors, frozen on dry ice and stored at −80° C. until processed. A Micro BCA (Pierce) total protein assay, and total synuclein and phospho-synuclein ELISAs were performed on each plate of treated cells using standard methods.

PLK4 = molecular target: T2, PLK4 (Homo sapiens, UniProt O00444); assay: HEK-293 cells overexpressing synuclein and PLK4, inhibition of synuclein phosphorylation; assay type: cell-based
T2 sequence (O00444 1-970): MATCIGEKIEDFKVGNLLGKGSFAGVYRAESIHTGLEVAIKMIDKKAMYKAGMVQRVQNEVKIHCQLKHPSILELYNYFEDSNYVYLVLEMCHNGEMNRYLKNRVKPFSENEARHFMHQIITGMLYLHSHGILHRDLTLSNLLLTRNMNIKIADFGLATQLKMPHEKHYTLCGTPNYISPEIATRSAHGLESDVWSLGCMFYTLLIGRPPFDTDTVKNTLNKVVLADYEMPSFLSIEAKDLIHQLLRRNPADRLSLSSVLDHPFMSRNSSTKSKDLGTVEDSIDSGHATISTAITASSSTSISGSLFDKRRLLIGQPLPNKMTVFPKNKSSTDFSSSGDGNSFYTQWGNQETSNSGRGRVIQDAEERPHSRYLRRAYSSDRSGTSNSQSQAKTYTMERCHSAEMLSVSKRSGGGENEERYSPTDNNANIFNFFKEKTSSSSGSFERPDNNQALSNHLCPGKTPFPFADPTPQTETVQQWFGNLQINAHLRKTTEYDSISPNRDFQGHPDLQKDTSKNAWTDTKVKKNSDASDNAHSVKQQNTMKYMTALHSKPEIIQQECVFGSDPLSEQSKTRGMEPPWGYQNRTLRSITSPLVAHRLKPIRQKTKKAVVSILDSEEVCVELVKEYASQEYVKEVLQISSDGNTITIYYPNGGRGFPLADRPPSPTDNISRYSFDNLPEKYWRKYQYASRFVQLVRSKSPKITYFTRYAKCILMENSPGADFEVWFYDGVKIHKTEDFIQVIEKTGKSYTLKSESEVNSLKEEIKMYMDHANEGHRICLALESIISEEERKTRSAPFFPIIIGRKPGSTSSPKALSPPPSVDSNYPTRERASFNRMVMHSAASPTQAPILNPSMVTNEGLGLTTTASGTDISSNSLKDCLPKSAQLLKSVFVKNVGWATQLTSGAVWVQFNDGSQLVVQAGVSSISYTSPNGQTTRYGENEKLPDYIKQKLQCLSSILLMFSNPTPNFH
Experimental: as §1

PLK1 = molecular target: T3, PLK1 (Homo sapiens, UniProt P53350); assay: HEK-293 cells overexpressing synuclein and PLK1, inhibition of synuclein phosphorylation; assay type: cell-based
T3 construct: expressed in transfected cells; host or cells: HEK-293
T3 sequence (P53350 whole entry): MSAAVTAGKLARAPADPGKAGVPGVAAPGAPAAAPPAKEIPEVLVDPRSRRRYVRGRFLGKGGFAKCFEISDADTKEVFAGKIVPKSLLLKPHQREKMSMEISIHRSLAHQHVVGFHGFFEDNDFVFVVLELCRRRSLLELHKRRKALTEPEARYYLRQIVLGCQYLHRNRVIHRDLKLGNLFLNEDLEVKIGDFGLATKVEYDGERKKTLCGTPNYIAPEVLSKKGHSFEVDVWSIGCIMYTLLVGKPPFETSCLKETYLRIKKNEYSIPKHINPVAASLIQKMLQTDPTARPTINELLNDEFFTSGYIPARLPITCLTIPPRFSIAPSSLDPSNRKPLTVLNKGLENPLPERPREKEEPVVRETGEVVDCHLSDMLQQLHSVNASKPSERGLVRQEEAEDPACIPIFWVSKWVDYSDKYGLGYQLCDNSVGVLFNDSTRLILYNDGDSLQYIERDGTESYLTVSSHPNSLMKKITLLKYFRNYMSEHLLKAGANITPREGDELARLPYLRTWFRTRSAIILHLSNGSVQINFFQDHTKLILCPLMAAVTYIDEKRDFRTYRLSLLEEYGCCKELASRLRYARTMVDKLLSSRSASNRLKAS
Experimental: as §1

PLK3 = molecular target: T4, PLK3 (Homo sapiens, UniProt Q9H4B4); assay: HEK-293 cells overexpressing synuclein and PLK3, inhibition of synuclein phosphorylation; assay type: cell-based; settings: for pEC50: HEK-293, Example 16, Table 21, read-out: EC50 Based on the Percent Inhibition of Synuclein Phosphorylation, Synuclein + PLK3; for Rank Order of Potency Based on Percent Inhibition of Synuclein Phosphorylation, Synuclein + PLK3: HEK-293, Table 22
T4 construct: expressed in transfected cells; host or cells: HEK-293
T4 sequence (Q9H4B4 whole entry): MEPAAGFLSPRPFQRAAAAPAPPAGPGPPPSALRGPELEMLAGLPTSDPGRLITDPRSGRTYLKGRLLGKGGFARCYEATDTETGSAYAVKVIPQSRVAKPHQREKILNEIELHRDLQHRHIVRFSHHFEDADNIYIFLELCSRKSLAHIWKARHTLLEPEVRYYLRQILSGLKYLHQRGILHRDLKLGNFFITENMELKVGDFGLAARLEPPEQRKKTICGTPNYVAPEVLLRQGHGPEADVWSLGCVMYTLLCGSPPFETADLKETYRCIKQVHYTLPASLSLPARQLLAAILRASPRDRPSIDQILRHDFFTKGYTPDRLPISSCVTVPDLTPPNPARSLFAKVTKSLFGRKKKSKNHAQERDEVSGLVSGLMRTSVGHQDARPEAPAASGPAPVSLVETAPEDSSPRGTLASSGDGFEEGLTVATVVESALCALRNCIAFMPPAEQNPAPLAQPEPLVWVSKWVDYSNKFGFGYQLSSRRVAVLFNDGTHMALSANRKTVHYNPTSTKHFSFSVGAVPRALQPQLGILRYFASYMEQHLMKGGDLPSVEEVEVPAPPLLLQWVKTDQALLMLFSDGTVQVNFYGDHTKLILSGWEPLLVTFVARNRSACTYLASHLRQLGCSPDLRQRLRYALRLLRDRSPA
Experimental: as §1

[9] = HEK293, 293 cells, Table 18, read-out: EC50, Endogenous Kinase (293)
[10] = PLK2-driven synuclein phosphorylation, read-out: IC50 in the in vitro biochemical assay
[11] = 293 cells, Table 18, read-out: EC50, Over-Expressed PLK2 (293)
[12] = E46K-Synuclein transgenic mouse cortical cultures
[13] = E46K-Synuclein transgenic mouse cortical cultures, read-out: EC50, E46K-Syn TG MCC
[14] = Swiss-Webster mouse cortical cultures
[15] = Swiss-Webster mouse cortical cultures, read-out: EC50, Swiss-Webster MCC
[16] = WT mouse cortical cultures, read-out: EC50, WT-MCC
[17] = HEK293, HEK-293, Example 16, Table 21, read-out: EC50 Based on the Percent Inhibition of Synuclein Phosphorylation, Synuclein + Vector
[18] = HEK293, most of the cellular paradigms / cell types tested, read-out: EC50 inhibition of synuclein phosphorylation, cellular paradigms

Structure (SMILES)	rank order of potency, Endogenous Kinase (293) ([2]; 293 cells)	pEC50 [2, 9]	pEC50 [4]	rank order of potency, RVM E46K-Synuclein [4]	pIC50 (PLK2 [5]; [10])	pEC50 [6]	rank order of potency, RVM E46K-Synuclein caPLK2 [6]	pEC50 (PLK2 [7]; [11])	rank order of potency, E46K-Syn TG MCC [8, 12]	pEC50 [8, 13]	rank order of potency, Swiss-Webster MCC [8, 14]	pEC50 [8, 15]	rank order of potency, WT-MCC ([8]; WT mouse cortical cultures)	pEC50 [8, 16]	pEC50 [2, 17]	pEC50 [3, 18]	rank order of potency, Straight Biochemical (PLK2 [5]; rank among 8 inhibitors)	pEC50 (PLK3)	Rank Order of Potency Based on Percent Inhibition of Synuclein Phosphorylation, Synuclein + PLK3 (PLK3)	rank order of potency, Over-Expressed PLK2 (293) (PLK2 [7]; 293 cells, Table 19)	also measured
CC[C@@H]1C(=O)N(C)c2cnc(Nc3ccc(C(=O)NC4CCN(C)CC4)cc3OC)nc2N1C1CCCC1 [BI 2561]	–	–	–	–	–	–	–	–	–	–	–	–	–	–	–	–	–	–	–	–	total α-synuclein levels in brain, western blot [1]: no effect; brain p-synuclein levels (p-Ser129), western blot ([1]; from 1 hour to 6 hours after treatment): clear decrease
COC(=O)[C@@]1(O)C[C@H]2O[C@]1(C)n1c3ccccc3c3c4c(c5c6ccccc6n2c5c31)C(=O)NC4 [Compound K252A]	2	5.44	5.49	3	< 5.00	5.46	2	5.15	2	5.51	2	5.54	2	5.52	–	–	–	–	–	–	pEC50 ([3]; HEK293, read-out: EC50 inhibition of synuclein phosphorylation, cellular paradigms): 5.15 to 5.52; rank order of potency, Straight Biochemical (PLK2 [5]): 4; pIC50 (PLK2 [5]; in vitro PLK2-driven synuclein phosphorylation, read-out: IC50, Straight Biochemical): < 5.00; rank order of potency, Over-Expressed PLK2 (293) (PLK2 [7]): 2
CN(C)c1nc2c(Br)c(Br)c(Br)c(Br)c2[nH]1 [DMAT, 2-Dimethylamino-4,5,6,7-tetrabromo-1H-benzimidazole]	3	4.48	4.70	4	5.68	4.55	4	4.73	4	4.78	4	4.67	4	4.73	4.25	4.48 to 4.80	2	4.43	2	4	Rank Order of Potency Based on Percent Inhibition of Synuclein Phosphorylation, Synuclein + Vector ([2]; HEK-293, Table 22): 2; pEC50 ([2]; HEK293, HEK-293, synuclein only, read-out: EC50 synuclein phosphorylation, endogenous kinase): 4.25; Rank Order of Potency Based on Percent Inhibition of Synuclein Phosphorylation, Synuclein + PLK4 (PLK4; HEK-293, Table 22): 2; pEC50 (PLK1; HEK-293, Example 16, Table 21, read-out: EC50 Based on the Percent Inhibition of Synuclein Phosphorylation, Synuclein + PLK1): 4.57; Rank Order of Potency Based on Percent Inhibition of Synuclein Phosphorylation, Synuclein + PLK1 (PLK1; HEK-293, Table 22): 3; pEC50 (PLK2 [7]; HEK-293, Example 16, Table 21, read-out: EC50 Based on the Percent Inhibition of Synuclein Phosphorylation, Synuclein + PLK2): 4.86; Rank Order of Potency Based on Percent Inhibition of Synuclein Phosphorylation, Synuclein + PLK2 (PLK2 [7]): 2
NC(=O)c1sc2c([N+](=O)[O-])cc(C(F)(F)F)cc2[n+]1[O-] [ELN-481080]	4	–	~4.00	–	5.11	4.60	–	4.42	–	–	–	–	–	–	< 4.00	4.42 to 4.92	3	< 4.00	3	5	pEC50 ([2]; HEK293, read-out: EC50, Endogenous Kinase (293)): ~4.00; pEC50 ([2]; HEK293, read-out: EC50 synuclein phosphorylation, endogenous kinase, previous experiments): ~4.00; EC50 synuclein phosphorylation, over-expressed PLK4 (PLK4; HEK-293): not reached; EC50 synuclein phosphorylation, over-expressed PLK3 (PLK3; HEK-293): not reached; inhibition of synuclein phosphorylation, over-expressed PLK3 (PLK3; at concentrations of 30-100 μM): 30-40%; Rank Order of Potency Based on Percent Inhibition of Synuclein Phosphorylation, Synuclein + PLK2 (PLK2 [7]): 3
